{"source": "patent US20250025443A1", "about": "“COMPOUNDS AND METHODS FOR TREATING CORONA VIRUSES” (CLEAR CREEK BIO, INC., priority 2021, published 2025)"}
{"target": "SARS-CoV-2 Papain-Like Protease (PLpro) (Severe acute respiratory syndrome coronavirus 2 (2019-nCoV) (SARS-CoV-2), UniProt P0DTD1)", "experiment": "biochemical", "conditions": "PLpro enzymatic fluorescence assay; class symbols; read-out: PLpro IC50", "units": {"IC50": "nM"}}
{"smiles": "CCOc1cc(C2(NC(=O)c3cc(OCC4CCN4C)ccc3C)CC2)c2ccccc2c1", "note": "(stereo not drawn) [Compound 478, N-(1-(3-Ethoxynaphthalen-1-yl)cyclopropyl)-2-methyl-5-((1-methylazetidin-2-yl)methoxy)benzamide]", "IC50": "< 100"}
{"smiles": "Cc1ccc(OC[C@@H]2CCN2)cc1C(=O)NC1(c2cc(-c3cccnc3)cc3ncccc23)CC1", "note": "[Compound 637, (S)-5-(Azetidin-2-ylmethoxy)-2-methyl-N-(1-(7-(pyridin-3-yl)quinolin-5-yl)cyclopropyl)benzamide]", "IC50": "< 100"}
{"smiles": "COc1cc(C2(NC(=O)c3cc(OC[C@@H]4CCN4C)ccc3C)COC2)c2ccccc2c1", "note": "[Compound 566]", "IC50": "< 100"}
{"smiles": "Cc1ccc(OCC2CCN2C)cc1C(=O)NC1(c2c3ccccc3cc3ccccc23)CC1", "note": "(stereo not drawn) [Compound 507, N-(1-(Anthracen-9-yl)cyclopropyl)-2-methyl-5-((1-methylazetidin-2-yl)methoxy)benzamide]", "IC50": "100 to 1000"}
{"smiles": "COc1cc(C2(NC(=O)c3cc(OC[C@@H]4CC[C@@H]5CN(C(=O)OC(C)(C)C)CCN54)ccc3C)CC2)c2cccnc2c1", "note": "[Compound 775]", "IC50": "< 100"}
{"smiles": "Cc1ccc(-c2cc(C3(NC(=O)c4cc(OC[C@@H]5CCN5C)ccc4C)COC3)c3cccnc3c2)o1", "note": "[Compound 808]", "IC50": "< 100"}
{"smiles": "CNc1cc(C)c(C(=O)NC2(c3cc(OC)cc4ncccc34)CC2)cc1OC[C@@H]1CCN1C", "note": "[Compound 737, (S)-N-(1-(7-Methoxyquinolin-5-yl)cyclopropyl)-2-methyl-4-(methylamino)-5-((1-methylazetidin-2-yl)methoxy)benzamide]", "IC50": "< 100"}
{"smiles": "CC#Cc1cc(C2(NC(=O)c3cc(OC[C@@H]4CCN4C)ccc3C)CC2)c2cccnc2c1", "note": "[Compound 721, (S)-2-Methyl-5-((1-methylazetidin-2-yl)methoxy)-N-(1-(7-(prop-1-yn-1-yl)quinolin-5-yl)cyclopropyl)benzamide]", "IC50": "< 100"}
{"smiles": "Cc1ccc(N2CCC(N)C2)cc1C(=O)NC1(c2cccc3ccccc23)CC1", "note": "(stereo not drawn) [Compound 485, 5-(3-Aminopyrrolidin-1-yl)-2-methyl-N-(1-(naphthalen-1-yl)cyclopropyl)benzamide]", "IC50": "< 100"}
{"smiles": "C=Cc1cc(C2(NC(=O)c3cc(OC[C@H](C)NC)ccc3C)CC2)c2cccnc2c1", "note": "[Compound 661, (S)-2-Methyl-5-(2-(methylamino)propoxy)-N-(1-(7-vinylquinolin-5-yl)cyclopropyl)benzamide]", "IC50": "< 100"}
{"smiles": "Cc1ccc(OC[C@@H]2CCN2)cc1C(=O)NC1(c2cc(-c3ccoc3)cc3ncccc23)CC1", "note": "[Compound 645, (S)-5-(Azetidin-2-ylmethoxy)-N-(1-(7-(furan-3-yl)quinolin-5-yl)cyclopropyl)-2-methylbenzamide]", "IC50": "< 100"}
{"smiles": "Cc1ccc(OC[C@@H]2CCN2C)cc1C(=O)NC1(c2cc(C3=CCCC3)cc3ncccc23)CC1", "note": "[Compound 609, (S)-N-(1-(7-(Cyclopent-1-en-1-yl)quinolin-5-yl)cyclopropyl)-2-methyl-5-((1-methylazetidin-2-yl)methoxy)benzamide]", "IC50": "< 100"}
{"smiles": "Cc1ccc(OC[C@@H]2CCN2)cc1C(=O)NC1(c2cc(-c3ccn(C)n3)cc3ncccc23)CC1", "note": "[Compound 634, (S)-5-(Azetidin-2-ylmethoxy)-2-methyl-N-(1-(7-(1-methyl-1H-pyrazol-3-yl)quinolin-5-yl)cyclopropyl)benzamide]", "IC50": "< 100"}
{"smiles": "Cc1ccc(OC[C@@H]2CCN2C)cc1C(=O)NC1(c2cc(-c3ccnn3C)cc3ncccc23)CC1", "note": "[Compound 578, (S)-2-Methyl-N-(1-(7-(1-methyl-1H-pyrazol-5-yl)quinolin-5-yl)cyclopropyl)-5-((1-methylazetidin-2-yl)methoxy)benzamide]", "IC50": "< 100"}
{"smiles": "Cc1ccc(OCC2CCN2C)cc1C(=O)NC1(c2cccc3ccc(F)cc23)CC1", "note": "(stereo not drawn) [Compound 444, N-(1-(7-Fluoronaphthalen-1-yl)cyclopropyl)-2-methyl-5-((1-methylazetidin-2-yl)methoxy)benzamide]", "IC50": "< 100"}
{"target": "SARS-CoV-2 Papain-Like Protease (PLpro) (Severe acute respiratory syndrome coronavirus 2 (2019-nCoV) (SARS-CoV-2), UniProt P0DTD1)", "experiment": "biochemical", "conditions": "SARS-CoV-2 PLpro enzymatic fluorescence assay; read-out: PLpro IC50", "units": {"IC50": "nM"}}
{"smiles": "Cc1ccc(OCC2CCN2C)cc1C(=O)NC1(c2cc(O)cc3ccccc23)CC1", "note": "(stereo not drawn) [Compound 433, N-(1-(3-Hydroxynaphthalen-1-yl)cyclopropyl)-2-methyl-5-((1-methylazetidin-2-yl)methoxy)benzamide]", "IC50": "< 100"}
{"smiles": "Cc1ccc(OC[C@@H]2CCCN2)cc1C(=O)NC1(c2cccc3ncccc23)CC1", "note": "[Compound 380, (S)-2-Methyl-5-(pyrrolidin-2-ylmethoxy)-N-(1-(quinolin-5-yl)cyclopropyl)benzamide]", "IC50": "< 100"}
{"smiles": "Cc1cc2ccn(C3CNC3)c2cc1C(=O)NC1(c2cccc3ccccc23)CC1", "note": "[Compound 218, 1-(Azetidin-3-yl)-5-methyl-N-(1-(naphthalen-1-yl)cyclopropyl)-1H-indole-6-carboxamide]", "IC50": "< 100"}
{"smiles": "CNCCOc1ccc(C)c(C(=O)NC2(c3cccc4ccccc34)CC2)c1", "note": "[Compound 233, 2-Methyl-5-(2-(methylamino)ethoxy)-N-(1-(naphthalen-1-yl)cyclopropyl)benzamide]", "IC50": "< 100"}
{"smiles": "Cc1ccc(N)cc1C(=O)NC1(c2cccc3ccccc23)CCC1", "note": "[Compound 219, 5-Amino-2-methyl-N-(1-(naphthalen-1-yl)cyclobutyl)benzamide]", "IC50": "> 5000"}
{"smiles": "Cc1cc2[nH]ccc2cc1C(=O)NC1(c2cccc3ccccc23)CC1", "note": "[Compound 223, 6-Methyl-N-(1-(naphthalen-1-yl)cyclopropyl)-1H-indole-5-carboxamide]", "IC50": "100 to 1000"}
{"smiles": "Cc1cc2c(cc1C(=O)NC1(c3cccc4ccccc34)CC1)NC(CN)C2", "note": "(stereo not drawn) [Compound 190, 2-(Aminomethyl)-5-methyl-N-(1-(naphthalen-1-yl)cyclopropyl)indoline-6-carboxamide]", "IC50": "< 100"}
{"smiles": "Cc1cc2cc(CNC(=O)OC(C)(C)C)[nH]c2cc1C(=O)N[C@H](C)c1cccc2ccccc12", "note": "[Compound 189, (R)-tert-Butyl((5-methyl-6-((1-(naphthalen-1-yl)ethyl)carbamoyl)-1H-indol-2-yl)methyl)carbamate]", "IC50": "> 5000"}
{"smiles": "COc1cc(C2(NC(=O)c3cc(OC[C@@H]4CCN4C)c(N)cc3C)CC2)c2cccnc2c1", "note": "[Compound 597, (S)-4-Amino-N-(1-(7-methoxyquinolin-5-yl)cyclopropyl)-2-methyl-5-((1-methylazetidin-2-yl)methoxy)benzamide]", "IC50": "< 100"}
{"smiles": "Cc1ccc(OC[C@H]2C[C@H](F)CN2)cc1C(=O)NC1(c2cccc3ccccc23)CC1", "note": "(single isomer, unassigned) [Compound 442]", "IC50": "< 100"}
{"smiles": "Cc1ccc(NC2CNC2)cc1C(=O)NC1(c2cccc(-c3ccc(CN[C@H]4CC[C@@H](O)C4)s3)c2)CC1", "note": "[Compound 196, 5-(Azetidin-3-ylamino)-N-(1-(3-(5-((((1S,3R)-3-hydroxycyclopentyl)amino)methyl)thiophen-2-yl)phenyl)cyclopropyl)-2-methylbenzamide]", "IC50": "100 to 1000"}
{"smiles": "Cc1ccc2c(C3(NC(=O)c4cc(OC[C@@H]5CCN5C)ccc4C)CC3)cccc2n1", "note": "[Compound 547, (S)-2-Methyl-5-((1-methylazetidin-2-yl)methoxy)-N-(1-(2-methylquinolin-5-yl)cyclopropyl)benzamide]", "IC50": "< 100"}
{"smiles": "COc1ccc2c(C3(NC(=O)c4cc(OC[C@@H]5CCN5C)ccc4C)CC3)cccc2n1", "note": "[Compound 544, (S)-N-(1-(2-Methoxyquinolin-5-yl)cyclopropyl)-2-methyl-5-((1-methylazetidin-2-yl)methoxy)benzamide]", "IC50": "< 100"}
{"smiles": "Cc1ccc(N)cc1NC(=O)C(C)c1cccc2ccccc12", "note": "(stereo not drawn) [Compound 163, N-(5-Amino-2-methylphenyl)-2-(naphthalen-1-yl)propanamide]", "IC50": "> 5000"}
{"smiles": "CCN1CCC1COc1ccc(C)c(C(=O)NC2(c3cccc4ccccc34)CC2)c1", "note": "(stereo not drawn) [Compound 314, 5-((1-Ethylazetidin-2-yl)methoxy)-2-methyl-N-(1-(naphthalen-1-yl)cyclopropyl)benzamide]", "IC50": "< 100"}
{"smiles": "CCCOc1cc(C2(NC(=O)c3cc(OCC4CCN4C)ccc3C)CC2)c2ccccc2c1", "note": "(stereo not drawn) [Compound 474, 2-Methyl-5-((1-methylazetidin-2-yl)methoxy)-N-(1-(3-propoxynaphthalen-1-yl)cyclopropyl)benzamide]", "IC50": "< 100"}
{"smiles": "Cc1ccc(OCCN(C)C)cc1C(=O)NC1(c2cccc(OCc3ccccc3)c2)CC1", "note": "[Compound 308, N-(1-(3-(Benzyloxy)phenyl)cyclopropyl)-5-(2-(dimethylamino)ethoxy)-2-methylbenzamide]", "IC50": "> 5000"}
{"smiles": "Cc1cc2cc(CCN)[nH]c2cc1C(=O)NC1(c2cccc3ccccc23)CC1", "note": "[Compound 202, 2-(2-Aminoethyl)-5-methyl-N-(1-(naphthalen-1-yl)cyclopropyl)-1H-indole-6-carboxamide]", "IC50": "100 to 1000"}
{"smiles": "Cc1ccc(OCC(N)C(C)(C)C)cc1C(=O)NC1(c2cccc3ccccc23)CC1", "note": "(stereo not drawn) [Compound 343, 5-(2-Amino-3,3-dimethylbutoxy)-2-methyl-N-(1-(naphthalen-1-yl)cyclopropyl)benzamide]", "IC50": "< 100"}
{"smiles": "Cc1cc(I)c(N)cc1C(=O)NC1(c2cccc3ccccc23)CC1", "note": "[Compound 216, 5-Amino-4-iodo-2-methyl-N-(1-(naphthalen-1-yl)cyclopropyl)benzamide]", "IC50": "100 to 1000"}
{"smiles": "CNCCOc1ccc(C)c(C(=O)NC2(c3cccc4cc(F)ccc34)CC2)c1", "note": "[Compound 377, N-(1-(6-Fluoronaphthalen-1-yl)cyclopropyl)-2-methyl-5-(2-(methylamino)ethoxy)benzamide]", "IC50": "< 100"}
{"smiles": "Cc1cc2sc(CN)nc2cc1C(=O)NC1(c2cccc3ccccc23)CC1", "note": "[Compound 245, 2-(Aminomethyl)-6-methyl-N-(1-(naphthalen-1-yl)cyclopropyl)benzo[d]thiazole-5-carboxamide]", "IC50": "< 100"}
{"smiles": "CN(Cc1ccc2[nH]ncc2c1)C1(c2cccc3ccccc23)CC1", "note": "[Compound 184, N-((1H-Indazol-5-yl)methyl)-N-methyl-1-(naphthalen-1-yl)cyclopropane amine]", "IC50": "> 5000"}
{"smiles": "Cc1ccc(OCC2CCN2Cc2ccccc2)cc1C(=O)NC1(c2cccc3ccccc23)CC1", "note": "(stereo not drawn) [Compound 330, 5-((1-Benzylazetidin-2-yl)methoxy)-2-methyl-N-(1-(naphthalen-1-yl)cyclopropyl)benzamide]", "IC50": "< 100"}
